Earlier results, collected in patent US20160102058A1, “FLUORO-PERHEXILINE COMPOUNDS AND THEIR THERAPEUTIC USE” (THE UNIVERSITY COURT OF THE UNIVERSITY OF ABERDEEN, priority 2013, published 2016).

Key:
[1] = cited from earlier work
[2] = elderly patients with aortic stenosis unsuitable for valve replacement; cited from earlier work

## C1CCC(C(CC2CCCCN2)C2CCCCC2)CC1 (stereo not drawn) [Perhexiline, 2-(2,2-dicyclohexylethyl)piperidine]
[1]; patients who showed no side-effects
  plasma perhexiline to metabolite ratio, patients without toxicological side-effects: 0.3
[1]; patients who showed side-effects
  plasma perhexiline to metabolite ratio, patients with side-effects: 2.8
[2]
  patients with clear symptomatic improvement: 13 out of 15
